This is an account of results in EP4563579A1, “MACROCYCLIC EGFR INHIBITOR, AND PREPARATION METHOD THEREFOR AND PHARMACEUTICAL USE THEREOF” (Abbisko Therapeutics Co., Ltd., priority 2022, dated 2024).

One series concerns A431 WT. The experiment in a line: Cell proliferation assay (CellTiter-Glo), A431 WT. In kind it is cell-based. The conditions noted are these: Homo sapiens, A-431; A431 WT cells, 72 hour incubation, CTG readout. The method, boiled down: (§1)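 Cells seeded overnight, then exposed 72 h at 37 °C, 5% CO2 to nine 3.16-fold dilutions (top final 10 µM, 0.1% DMSO), triplicate wells. Viability read by CellTiter-Glo luminescence, with a T0 plate read at dosing; IC50 (nM) by non-linear sigmoidal regression.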
(In general: Cellular ATP, detected with luciferase, serves as a proxy for viable cell number.)

Series [1] concerns Ba/F3 EGFR-L858R-T790M-C797S (LTC). The experiment in a line: Cell proliferation assay (CellTiter-Glo), Ba/F3 LTC. In kind it is cell-based. The conditions noted are these: Mus musculus, BaF3; Ba/F3 EGFR-L858R-T790M-C797S cells, 72 hour incubation, CTG readout. Summed up: as §1
In series [2] the test system is Ba/F3 EGFR-DEL19-T790M-C797S (DTC). In words: Cell proliferation assay (CellTiter-Glo), Ba/F3 DTC. The conditions noted are these: Ba/F3 EGFR-DEL19-T790M-C797S cells, 72 hour incubation, CTG readout; read-out: IC50 BaF3 DTC. In kind it is cell-based. The method, then: (§2) • DMEM Medium (Gibco, Cat#11965118) • RPMI1640 Medium (Gibco, Cat#11875119) • Fetal Bovine Serum (FBS) (GBICO, Cat#10099-141) • CellTiter-Glo® Luminescent Cell Viability Assay Kit (Promega, Cat#G7572) 96-well, Black, Clear Flat Bottom Plate (Corning®, Cat# 3603)
(§3) • SpectraMax Multimode Microplate Reader MD, 2104-0010A; • CO2 Incubator, Thermo Scientific 3100 Series; • Biosafety Cabinet, Thermo Scientific, 1300 Series A2; • Inverted Microscope, Olympus, CKX41SF; • Siemens Refrigerator, KK25E76TI.
(§4) • 1. Cell Culture and Inoculation: • (1) Harvest cells in a logarithmic growth phase and count the cells using a […]. Test cell viability using a trypan blue exclusion method to ensure that cell viability is above 90%. • (2) Adjust the cell concentration to desired final density; and add 90 µL of cell suspension to a 96-well plate. • (3) Incubate the cells overnight at 37°C, under 5% CO2 and 95% humidity in the 96-well plate. • 2. T0 Reference Data: • (1) Add 10 µL PBS to each well of the T0 plate containing cells. • (2) Thaw the CTG reagent and equilibrate the plate to room temperature for 30 minutes. • (3) Add an equal volume of CTG solution to each well. • (4) Lyse cells by shaking on an orbital shaker for 5 minutes. • (5) Leave the plate at room temperature for 20 minutes to stabilize the luminescence signal. • (6) Read the T0 […]. • 3. Compound Dilution and Addition • (1) Add a corresponding volume of DMSO to a corresponding compound powder according to the compound information sheet to prepare a 10 mM stock solution. • (2) Prepare 1000-fold and 3.16-fold diluted compound solutions. • (3) Dilute the 1000× diluted compound solution 100-fold with PBS to prepare a 10-fold compound solution, with a maximum concentration of 10 µM, nine concentrations and 3.16-fold dilution. Then add 10 µL of the drug solution concentration to individual wells of the 96-well plate seeded with cells. Test each compound concentration in triplicate wells, and the final DMSO concentration is 0.1%. • (4) Incubate the cells in the 96-well plate containing the drug compounds at 37°C, under 5% CO2, and 95% humidity for an additional 72 hour period prior to performing the CTG analysis. • 4. Fluorescence Signal Reading • (1) Thaw the CTG reagent and equilibrate the plate to room temperature for 30 minutes. • (2) Add an equal volume of CTG solution to each well. • (3) Lyse cells by shaking on an orbital shaker for 5 minutes. • (4) Leave the plate at room temperature for 20 minutes to stabilize the […]. • (5) Read fluorescence value. • 5. Data Processing
(§5) Analyze the data by using GraphPad Prism 7.0 software, and use Non-linear S-curve regression to fit the dose-response curves, to calculate the IC50 values (in nM). The specific experiment results are presented in Table 1: [formula] Table 1: Biology Test Results

Series [3] concerns Ba/F3 EGFR-L858R-C797S (LC). The experiment in a line: Cell proliferation assay (CellTiter-Glo), Ba/F3 LC. The conditions noted are these: Mus musculus, BaF3; Ba/F3 EGFR-L858R-C797S cells, 72 hour incubation, CTG readout. In kind it is cell-based. Summed up:
as §1

Series [4] relates to Ba/F3 EGFR-DEL19-C797S (DC). In words: Cell proliferation assay (CellTiter-Glo), Ba/F3 DC. In kind it is cell-based. The conditions noted are these: Mus musculus, BaF3; Ba/F3 EGFR-DEL19-C797S cells, 72 hour incubation, CTG readout. The method, then:
as §2, §3, §4, §5

Series [5] is described as follows: Pharmacokinetic experiment in mice. In kind it is in vivo. The conditions noted are these: male, mouse; ICR mice, single oral administration (PO), 10 mg/kg, plasma. The source says: The purpose of this trial is to study the pharmacokinetic behavior of some compounds of the present invention, and the administration method is: Single oral administration (PO) to ICR mice.
The compounds used in this trial are from the compounds in the specific examples of the present invention and the listed positive compounds.
ICR mice male N=9 original source: Shanghai Sippr-Bk Lab Animal Co., Ltd.
The compounds are weighed and dissolved in the corresponding solution (10% PG + 10% Solutol® + 80% pH3 citrate buffer). The mixture is then shaken well and sonicated to prepare a 1 mg/mL stock solution. Nine mice are orally administered at a dose of 10 mg/kg (or IV 2 mg/kg) after an overnight fast.
About 90 µL of blood is collected via the submandibular vein per time point, heparin sodium anticoagulant is added, the sample is placed on ice after collection, and plasma is centrifuged within 1 hour (centrifugation conditions: 8,000 rpm, 6 minutes, 2-8°C). The blood collection timepoints are 0, 0.25, 0.5, 1, 2, 4, 6, 8 and 24 h. The samples are stored in a -20°C refrigerator.
The plasma sample is 40 µL, 160 µL of ice-cold acetonitrile containing internal standard is added, vortexed for 3 minutes, and centrifuged at 11,000 rpm for 5 minutes. 100 µL of the supernatant is taken and added to 100 µL of water, 5 µL of the sample is taken and injected into LC/MS/MS for analysis.

The IC50 is the point on the concentration scale where inhibition reaches its midpoint. As a reminder, the AUC(0-t) is the area under the concentration-time curve up to a stated or last time point. As a reminder, the Cmax is the maximum level reached in the sampled fluid or tissue. What is called half-life is how long it takes for the measured level to halve. A higher half-life goes with slow decline. For `CCCS(=O)(=O)C[C@H]1CCN(c2nn3c4cc(ncc24)Nc2ccnc(n2)-c2cnn(C)c2OCC2(CCCC2)C3)C1` [Example 42, (S)-3'-(3-((propylsulfonyl)methyl)pyrrolidin-1-yl)-1'-methylspiro(cyclopentane-1 ,6'-8-oxa-3-aza-4(6,1)-pyrazolo[4,3-c]pyridina-2(2,4)-pyrimidina-1(4,5)-pyrazolacyclooctaphane)], the concentration for half-maximal inhibition (IC50) in the series on A431 WT was 593 nM; in series [1] it was 1.2 nM; in series [2], 2.3 nM; in series [3], 1.9 nM; in series [4], 3.5 nM. The molecule further displayed an AUC(0-t) in series [5] of 4290 ng·h/mL. The molecule further yielded a Cmax in series [5] of 1060 ng/mL. Moreover, in series [5], the half-life was 3 h.
Regarding `C[C@H]1CCOc2c(cnn2C)-c2nccc(n2)Nc2cc3c(cn2)c(-c2ccc(CN4CCN(C)CC4)n2C)nn31` [Positive Compoun d, reference compound], the IC50 turned out to be 450 nM with A431 WT; 8 nM in series [1]; 4.2 nM in series [2]; 11.5 nM in series [3]; 4.9 nM in series [4]. This molecule returned an exposure AUC(0-t) in series [5] of 204 ng·h/mL. In series [5], this molecule returned a Cmax of 32.7 ng/mL. The same molecule showed a half-life in series [5] of 4.8 h.
For `CC(C)S(=O)(=O)C[C@H]1CCN(c2nn3c4cc(ncc24)Nc2ccnc(n2)-c2cnn(C)c2OCC2(CCCC2)C3)C1` [Example 39, (S)-3'-(3-((isopropylsulfonyl)methyl)pyrrolidin-1-yl)-1' -methylspiro(cyclopentane-1,6'-8-oxa-3-aza-4(6,1)-pyrazolo[4,3-c]pyridina-2(2,4)-pyrimidina-1(4,5)-pyrazolacyclooctaphane)], the IC50 in the series on A431 WT was 446 nM; in series [1], 0.8 nM; in series [2], 1.5 nM; in series [3] it was 2.1 nM; in series [4], 2.3 nM. In series [5], this molecule displayed an area under the curve AUC(0-t) of 6080 ng·h/mL. Further, the Cmax in series [5] turned out to be 1560 ng/mL. In addition, the half-life in series [5] is 3 h.
Take `Cn1ncc2c1OCC1(CCCC1)Cn1nc(N3CC[C@@H](C(C)(C)O)C3)c3cnc(cc31)Nc1ccnc-2n1` [Example 13, (R)-2-(1-(1'-methylspiro[cyclopentane-1,6'-8-oxa-3-aza-4(6,1)-pyrazolo[4,3-c]pyridina-2(2,4)-pyrimidina-1(4,5)-pyrazolacyclooctaphane]-3'-yl)pyrrolidin-3-yl)propan-2-ol]: the half-maximal inhibitory concentration (IC50) with A431 WT worked out at 794 nM; in series [1], 14.9 nM; in series [2], 8.4 nM; in series [3], 25.5 nM; in series [4], 14.8 nM. The same molecule displayed an AUC(0-t) in series [5] of 8870 ng·h/mL. The molecule also gave a Cmax in series [5] of 1540 ng/mL. In series [5], the half-life was 2.2 h.
For the molecule `COC(=O)N[C@@H]1CCN(c2nn3c4cc(ncc24)Nc2ccnc(n2)-c2cnn(C)c2OCC2(CCCC2)C3)C1` [Example 51, Methyl (R)-(1-(1'-methylspiro(cyclopentane-1,6'-8-oxa-3-aza-4 (6,1)-pyrazolo[4,3-c]pyridina-2(2,4)-pyrimidina-1(4,5)-pyrazolacyclooctaphane)-3'-yl)pyrrolidin-3-yl)carbamate], the 50% inhibitory concentration (IC50) was 424 nM in the series with A431 WT; 9 nM in series [1]; 10.1 nM in series [2]; 17.6 nM in series [3]; 15 nM in series [4]. This molecule yielded an AUC(0-t) in series [5] of 2690 ng·h/mL. In series [5], this molecule showed a Cmax of 596 ng/mL. Also, the half-life in series [5] was 2.8 h.
Consider `Cn1ncc2c1OCC1(CCCC1)Cn1nc(N3CC[C@@H](NS(=O)(=O)C4CC4)C3)c3cnc(cc31)Nc1ccnc-2n1` [Example 58, (R)-N-(1-(1'-methylspiro(cyclopentane-1,6'-8-oxa-3-aza-4(6,1)-pyrazolo[4,3-c]pyridina-2(2,4)-pyrimidina-1(4,5) -pyrazolacyclooctaphane)-3' -yl)pyrrolidin-3-yl)cyclopro panesulfonamide], for which the IC50 stood at 911 nM in the series with A431 WT; 2.1 nM in series [1]; 2.8 nM in series [2]; 6.9 nM in series [3]; 7.2 nM in series [4].
Turning to `C[C@H]1CCOc2c(cnn2C)-c2nccc(n2)Nc2cc3c(cn2)c(N2CC(CS(C)(=O)=O)C2)nn31` [Example A4, (S)-1^1,5-dimethyl-4^3-(3-((methylsulfonyl)methyl)azetidin-1-yl)-1^1H,4^1H-8-oxa-3-az a-4(6,1)-pyrazolo[4,3-c]pyri dina-2(2,4)-pyrimidina-1(4, 5)-pyrazolacyclooctaphane], the half-inhibitory concentration (IC50) in the series with A431 WT was 2680 nM; in series [1], 186 nM; in series [2], 244 nM; in series [3], 380 nM; in series [4], 176 nM.
As for `CN1CCC(F)(C#Cc2nn3c4cc(ncc24)Nc2ccnc(n2)-c2cnn(C)c2OCC2(CCCC2)C3)CC1` [Example 9, 3'-((4-fluoro-1-methylpiperidin-4-yl)ethynyl)-1'-methyls piro(cyclopentane-1,6'-8-oxa-3-aza-4(6,1)-pyrazolo[4,3-c]pyridina-2(2,4)-pyrimidina-1(4,5)-pyrazolacyclooctaphane)], the IC50 in the series on A431 WT came out at 1920 nM; in series [1] it was 47 nM; in series [2], 18.4 nM; in series [3], 62.7 nM; in series [4], 32.8 nM.
As to `Cn1ncc2c1OCC1(CCCC1)Cn1nc(N3CC[C@@H](CS(=O)(=O)C4CC4)C3)c3cnc(cc31)Nc1ccnc-2n1` [Example 30], the half-maximal inhibitory concentration (IC50) was determined as 744 nM in the series with A431 WT; 5.8 nM in series [1]; 2.4 nM in series [2]; 11.8 nM in series [3]; 2.5 nM in series [4].
As for `CC(C)S(=O)(=O)C[C@@H]1CCN(c2nn3c4cc(ncc24)Nc2ccnc(n2)-c2cnn(C)c2OCC2(CCCC2)C3)C1` [Example 31, (R)-3'-(3-((isopropylsulfonyl)methyl)pyrrolidin-1-yl)-1 '-methylspiro(cyclopentane-1,6'-8-oxa-3-aza-4(6,1)-pyrazolo[4,3-c]pyridina-2(2,4)-pyrimidina-1(4,5)-pyrazolacyclooctaphane)], the IC50 in the series on A431 WT worked out at 366 nM; in series [1] it was 4.3 nM; in series [2] it was 4.8 nM; in series [3] it was 10.8 nM; in series [4] it was 3.5 nM.
